Target: H. orenii β-glucosidase (GH1) (Halothermothrix orenii, UniProt B8CYA8)
Experiment: p-nitrophenol release, absorbance […] nm
Format: biochemical
Conditions: 50 mM HEPES pH 7.4, 10 mM substrate

Chain of H. orenii β-glucosidase (GH1) (B8CYA8 1-451): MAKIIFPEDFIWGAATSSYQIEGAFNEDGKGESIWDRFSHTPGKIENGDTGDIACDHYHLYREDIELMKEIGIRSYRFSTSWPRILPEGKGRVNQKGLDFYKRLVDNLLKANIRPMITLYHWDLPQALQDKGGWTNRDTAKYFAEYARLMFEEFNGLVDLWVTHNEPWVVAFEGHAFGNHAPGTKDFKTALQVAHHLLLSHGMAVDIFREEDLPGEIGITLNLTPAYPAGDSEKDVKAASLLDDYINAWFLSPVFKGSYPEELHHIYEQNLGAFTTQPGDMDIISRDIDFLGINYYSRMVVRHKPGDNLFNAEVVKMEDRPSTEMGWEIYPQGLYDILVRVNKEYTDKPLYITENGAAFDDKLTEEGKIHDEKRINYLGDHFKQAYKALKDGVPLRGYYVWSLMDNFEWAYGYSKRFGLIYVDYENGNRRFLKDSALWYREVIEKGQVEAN

O=[N+]([O-])c1ccc(O[C@@H]2O[C@H](CO)[C@@H](O)[C@H](O)[C@H]2O)cc1 [p-nitrophenyl glucoside]
p-nitrophenol release, absorbance 420 nm: monitoring the enzymatic rate of hydrolysis of p‐nitrophenyl glucoside by a UV‐Vis assay

From article PMC9310948 (Chemcatchem, 2022)
